In patent publication US4443603A, “Piperazine derivatives, of aromatic acids” (Kowa Company Limited, priority 1981, dated 1984) one finds IC50 data, which are given here for twelve compounds.

Common to all, as to assay type: biochemical
Experiment [1] deals with Chymotrypsin (Bos taurus, UniProt P00766). The experiment in a line: Chymotrypsin inhibitory effects (Hestrin color method, acetyl-L-tyrosine ethyl ester substrate). To be noted: pH 8.0, 10 min preincubation, 30 min at 37° C., ethyl ester of acetyl-L-tyrosine; read-out: 50% Inhibitory Concentration, Chymotrypsin. The protocol: Following the procedure of Muramatsu et al [The Journal of Biochemistry, 62, 408 (1967)], a mixture of 0.1 ml of a dimethylsulfoxide solution of each test compound, 0.1 ml of water and 0.1 ml of a buffer solution containing chymotrypsin in an amount of 10 μg/ml (a 0.1 mole trishydrochloric acid buffer solution, pH 8.0) was incubated for 10 minutes, combined with 0.1 ml of a buffer solution containing 25 millimoles of an ethyl ester of acetyl-L-tyrosine and then reacted with the ethyl ester at 37° C. for 30 minutes. The remaining substrate was caused to develop a color in accordance with the Hestrin method, and the amount was determined by measuring the absorbance at 530 nm. As a control compound, use was made of tosylphenylalanine chloromethyl ketone.

Experiment [2] addresses T1, Trypsin (Bos taurus, UniProt P00760).
T1 sequence (P00760 24-246): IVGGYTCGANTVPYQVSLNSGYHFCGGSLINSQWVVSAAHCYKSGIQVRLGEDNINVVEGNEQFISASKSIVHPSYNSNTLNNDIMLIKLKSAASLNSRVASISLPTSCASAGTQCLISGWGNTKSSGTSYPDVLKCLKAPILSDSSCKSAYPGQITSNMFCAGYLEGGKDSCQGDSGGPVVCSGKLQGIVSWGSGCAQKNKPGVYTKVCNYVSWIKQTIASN
The experiment in a line: Trypsin inhibitory effects (Hestrin color method, tosylarginine methyl ester substrate). To be noted: pH 8.0, 10 min preincubation, 30 min at 37° C., methyl ester of tosylarginine; read-out: 50% Inhibitory Concentration, Trypsin. The protocol:
Following the procedure of Muramatsu et al [The Journal of Biochemistry, 58, 214 (1967)], a mixture of 0.1 ml of a dimethylsufoxide solution of each test compound, 0.1 ml of a buffer solution (obtained by dissolving 10 millimoles of calcium chloride in a 0.1 mole trishydrochloric acid buffer solution, pH 8.0) and 0.1 ml of a buffer solution containing trypsin in an amount of 2.5 μg/ml was incubated for 10 minutes, mixed with 0.2 ml of a buffer solution containing 25 millimoles of a methyl ester of tosylarginine and then reacted with the methyl ester at 37° C. for 30 minutes. The remaining substrate was caused to develop a color in accordance with the Hestrin method, and the amount was determined by measuring the absorbance at 530 nm.

Experiment [3] has as its target Thrombin (Homo sapiens, UniProt P00734). Briefly: Thrombin inhibitory effects (Hestrin color method, tosylarginine methyl ester substrate). To be noted: pH 7.4, 10 min preincubation, 30 min at 37° C., methyl ester of tosylarginine; read-out: 50% Inhibitory Concentration, Thrombin. As to the method: Following the procedure of Tamura et al [Biochim. Biophys. Acta, 484, 417 (1977)], a mixture of 0.1 ml of a dimethylsulfoxide solution of each test compound, 0.1 ml of a buffer solution (a 0.1 mole sodium phosphate buffer, pH 7.4) and 0.1 ml of a buffer solution containing thrombin in an amount of 37.5 units/ml was incubated for 10 minutes, mixed with 0.2 ml of a buffer solution containing 25 millimoles of a methyl ester of tosylarginine and then reacted with the methyl ester at 37° C. for 30 minutes. The remaining substrate was caused to develop a color in accordance with the Hestrin method, and the amount was determined by measuring the absorbance at 530 nm.

Regarding `COc1ccc2[nH]c(C)c(CC(=O)Oc3ccc(C(=O)OCCN4CCN(CCN5CCOCC5)CC4)cc3)c2c1` [Test Compound 1, 4-{[2-[4-[2-(Morpholino)ethyl]piperazino]ethyl]oxycarbonyl}phenyl 5-methoxy-2-methylindole-3-acetate], the IC50 in experiment [1] stood at 0.1 µM; in experiment [2], 50 µM; in experiment [3], 100 µM.

On to `COc1ccc2[nH]c(C)c(CC(=O)Oc3ccc(C=CC(=O)N4CCN(CC(=O)N5CCCC5)CC4)cc3)c2c1` [Test Compound 10, 1-[4-(5-Methoxy-2-methylindole-3-acetyloxy)cynnamoyl]-4-(pyrrolidinocarbonylmethyl)piperazine], for which the IC50 in experiment [1] stood at 0.8 µM; in experiment [2] it was 600 µM; in experiment [3], 300 µM.

Consider `COc1ccc2c(c1)c(CC(=O)Oc1ccc(C(=O)OCCN3CCN(CC(=O)N4CCCC4)CC3)cc1)c(C)n2C` [Test Compound 2, 4-{[2-[4-(Pyrrolidinocarbonylmethyl)piperazino]ethyl]oxycarbonyl}phenyl 1,2-dimethyl-5-methoxyindole-3-acetate], for which the IC50 in experiment [1] came to 0.07 µM; in experiment [2] it was 500 µM; in experiment [3], 900 µM.

For `COc1ccc2[nH]c(C)c(CC(=O)Oc3ccc(C(=O)OCCN4CCN(CC(=O)N5CCOCC5)CC4)cc3)c2c1` [Test Compound 7, 4-{[2-[4-(Morpholinocarbonylmethyl)piperazino]ethyl]oxycarbonyl}phenyl 5-methoxy-2-methylindole-3-acetate], the IC50 in experiment [1] turned out to be 0.6 µM; in experiment [2], 200 µM; in experiment [3], 70 µM.

As to `COc1ccc2[nH]cc(CC(=O)Oc3ccc(C(=O)OCCN4CCN(CC(=O)N5CCCC5)CC4)cc3)c2c1` [Test Compound 8, 4-{[2-[4-(Pyrrolidinocarbonylmethyl)piperazino]ethyl]oxycarbonyl}phenyl 5-methoxyindole-3-acetate], the values for the IC50 in experiment [1], in experiment [2] and in experiment [3] were 0.05 µM, > 1000 µM and 600 µM, respectively.

As to `O=C(OCCN1CCN(CC(=O)N2CCOCC2)CC1)c1ccc(OC(=O)C2CCCc3ccccc32)cc1` (stereo not shown) [Test Compound 3, 4-{[2-[4-(Morpholinocarbonylmethyl)piperazino]ethyl]oxycarbonyl}phenyl 1,2,3,4-tetrahydro-1-naphthoate], the IC50 in experiment [1] was found to be 0.6 µM; in experiment [2], 500 µM; in experiment [3], 90 µM.

With `COc1ccc2[nH]c(C)c(CC(=O)Oc3ccc(C(=O)OCCN4CCN(C)CC4)cc3)c2c1` [Test Compound 9, 4-{[2-(4-Methylpiperazino)ethyl]oxycarbonyl}phenyl 5-methoxy-2-methylindole-3-acetate], the IC50 in experiment [1] stood at 0.06 µM; in experiment [2], 300 µM; in experiment [3], 40 µM.

`COc1ccc2[nH]c(C)c(CC(=O)Oc3ccc(C(=O)OCCN4CCN(CC(=O)N(C)C)CC4)cc3)c2c1` [Test Compound 6, 4-{[2-[4-(Dimethylaminocarbonylmethyl)piperazino]ethyl]oxycarbonyl}phenyl 5-methoxy-2-methylindole-3-acetate]: the IC50 came to 0.5 µM in experiment [1], 80 µM in experiment [2] and 60 µM in experiment [3].

Take `COc1ccc2[nH]c(C)c(CC(=O)Oc3ccc(C(=O)NCCN4CCN(CC(=O)N5CCOCC5)CC4)cc3)c2c1` [Test Compound 11, 4-{[2-[4-(Morpholinocarbonylmethyl)piperazino]ethyl]carbamoyl}phenyl 5-methoxy-2-methylindole-3-acetate]: the results for the IC50 in experiment [1], in experiment [2] and in experiment [3] were 0.6 µM, 80 µM and 100 µM, respectively.

Take `Cc1ccc(S(=O)(=O)N[C@@H](Cc2ccccc2)C(=O)CCl)cc1` [TPCK, Tosylphenylalanine chloromethyl ketone, reference compound]: the IC50 in experiment [1] was found to be 500 µM.

As for `O=C(Cc1cccc2ccccc12)Oc1ccc(C(=O)OCCN2CCN(CC(=O)N3CCCCC3)CC2)cc1` [Test Compound 5, 4-{[2-[4-(Piperidinocarbonylmethyl)piperazino]ethyl]oxycarbonyl}phenyl 1-naphtylacetate], the IC50 is 0.3 µM in experiment [1], > 1000 µM in experiment [2] and 9 µM in experiment [3].

Regarding `CN(C)C(=O)CN1CCN(CCOC(=O)c2ccc(OC(=O)Cc3cccc4ccccc34)cc2)CC1` [Test Compound 4, 4-{[2-[4-(Dimethylaminocarbonylmethyl)piperazino]ethyl]oxycarbonyl}phenyl 1-naphthylacetate], the results for the IC50 in experiment [1], in experiment [2] and in experiment [3] were 0.3 µM, > 1000 µM and 9 µM, respectively.
